Results on eleven molecules are retold here after PubChem BioAssay (NCI).

“And” between values parts separate entries of the source, which are not always exact repeats. Identical values can stand only once.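 1) Cells in 96-well plates. 2) Compound, 48 h, 5 concentrations. 3) Linear interpolation between surrounding doses. 4) Unreached endpoint = highest concentration. GI50 = concentration required for 50% inhibition of growth. At the TGI there is no net growth.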

For the first assay, the system named is HCT-15 colon. The assay can be described thus: inhibition of tumour cell growth, NCI panel, 48 h.
`C=C(C)C(OC)C(O)CC1(C)CC(O)CC(C)(C2CCC3OC(C4(C)CCC(Br)C(C)(C)O4)CCC3(C)O2)O1` (stereo not drawn): the GI50 was 26.2 µM and the TGI was > 68 µM.

Take `NC(N)=NS(=O)(=O)c1ccc(Nc2c3ccccc3nc3c(C(=O)NCCO)cccc23)cc1`: the GI50 is 32.2 µM.

Turning to `COc1cccc(-c2cc(-c3cccc(NS(C)(=O)=O)c3)nc(N)c2C#N)c1O`, the GI50 is 0.0824 µM and the TGI was > 100 µM.

For `COc1ccc2c(c1)sc1nc(-c3ccccc3)c(-c3cccc4ccccc34)n12`, the GI50 is 0.47 µM and the TGI is > 38.4 µM.

For `OCCN(CCO)c1ncnc2c1ncn2Cc1ccc(CCl)cc1`, the GI50 was 18.4 µM and the TGI was determined as 39.9 µM.

For the molecule `O=C(Nc1ccccc1)c1c(O)[nH]c(=S)[nH]c1=O`, the GI50 is 84.3 µM; the TGI is 72.2 µM and > 250 µM.

As to `Cc1ccc(NC(=O)Nc2ccc(-c3cccnc3)cc2N2CCC(CO)CC2)cc1`, the GI50 was 2.77 µM and the TGI was > 100 µM.

As to `Cc1cc(-c2nc(C(=O)Nc3cc4oc(N5CCOCC5)nc4nc3N3CC[C@@H](O)C3)co2)ccn1`, the GI50 is 25.7 µM and the TGI was > 100 µM.

For `COc1cc(/C=N\NC(=O)CN2CCN(c3cc4c(cc3F)c(=O)c(C(=O)N/N=C/c3cc(OC)c(OC)c(OC)c3)cn4C3CC3)CC2)cc(OC)c1OC`, the GI50 is > 100 µM and the TGI is > 100 µM.

`C=CC(=O)Nc1cc(Nc2ncc(C(=O)OC(C)C)c(-c3cn(C)c4ccccc34)n2)c(OC)cc1N(C)CCN(C)C`: the GI50 was 1.79 µM and the TGI came out at 5.05 µM.

With `CN(C)c1ccc(/C=C\C2=[N+](C)c3ccccc3C2(C)C)cc1`, the GI50 was 4.18 µM and the TGI was > 69.7 µM.

For a further assay, the system named is NCI-H226 lung. Description: inhibition of tumour cell growth, NCI panel, 48 h.
As for `C=C(C)C(OC)C(O)CC1(C)CC(O)CC(C)(C2CCC3OC(C4(C)CCC(Br)C(C)(C)O4)CCC3(C)O2)O1` (stereo not drawn), the GI50 is 18.8 µM and the TGI was determined as 41.2 µM.

The molecule `NC(N)=NS(=O)(=O)c1ccc(Nc2c3ccccc3nc3c(C(=O)NCCO)cccc23)cc1` displayed a TGI of 0.322 µM.

For `COc1cccc(-c2cc(-c3cccc(NS(C)(=O)=O)c3)nc(N)c2C#N)c1O`, the GI50 is 0.372 µM and the TGI is > 100 µM.

As for `COc1ccc2c(c1)sc1nc(-c3ccccc3)c(-c3cccc4ccccc34)n12`, the GI50 was 0.604 µM and the TGI stood at 5.28 µM.

Regarding `OCCN(CCO)c1ncnc2c1ncn2Cc1ccc(CCl)cc1`, the GI50 was 23.4 µM and the TGI worked out at 58 µM.

`O=C(Nc1ccccc1)c1c(O)[nH]c(=S)[nH]c1=O` returned a TGI of 107 µM.

On to `Cc1ccc(NC(=O)Nc2ccc(-c3cccnc3)cc2N2CCC(CO)CC2)cc1`, for which the GI50 was 6.31 µM and the TGI was > 100 µM.

For `Cc1cc(-c2nc(C(=O)Nc3cc4oc(N5CCOCC5)nc4nc3N3CC[C@@H](O)C3)co2)ccn1`, the GI50 is > 100 µM and the TGI was > 100 µM.

With `COc1cc(/C=N\NC(=O)CN2CCN(c3cc4c(cc3F)c(=O)c(C(=O)N/N=C/c3cc(OC)c(OC)c(OC)c3)cn4C3CC3)CC2)cc(OC)c1OC`, the GI50 was 0.34 µM and the TGI was 1.2 µM.

Turning to `C=CC(=O)Nc1cc(Nc2ncc(C(=O)OC(C)C)c(-c3cn(C)c4ccccc34)n2)c(OC)cc1N(C)CCN(C)C`, the GI50 is 7.45 µM and the TGI was 29.5 µM.

With `CN(C)c1ccc(/C=C\C2=[N+](C)c3ccccc3C2(C)C)cc1`, the GI50 was 2.68 µM and the TGI is > 55.2 µM.

A further assay deals with DU-145 prostate. Description: inhibition of tumour cell growth, NCI panel, 48 h.
On to `C=C(C)C(OC)C(O)CC1(C)CC(O)CC(C)(C2CCC3OC(C4(C)CCC(Br)C(C)(C)O4)CCC3(C)O2)O1` (stereo not drawn), for which the GI50 was 17300 nM and the TGI worked out at 32 µM.

As for `NC(N)=NS(=O)(=O)c1ccc(Nc2c3ccccc3nc3c(C(=O)NCCO)cccc23)cc1`, the GI50 is 15300 nM.

Regarding `COc1cccc(-c2cc(-c3cccc(NS(C)(=O)=O)c3)nc(N)c2C#N)c1O`, the GI50 was 182 nM and the TGI was > 100 µM.

`COc1ccc2c(c1)sc1nc(-c3ccccc3)c(-c3cccc4ccccc34)n12`: the GI50 is 767 nM and the TGI is > 31.9 µM.

Take `OCCN(CCO)c1ncnc2c1ncn2Cc1ccc(CCl)cc1`: the GI50 was 4420 nM and the TGI came to 16.1 µM.

For the molecule `O=C(Nc1ccccc1)c1c(O)[nH]c(=S)[nH]c1=O`, the TGI came to 103 µM.

In the case of `Cc1ccc(NC(=O)Nc2ccc(-c3cccnc3)cc2N2CCC(CO)CC2)cc1`, the GI50 is 3780 nM and the TGI is > 100 µM.

Take `Cc1cc(-c2nc(C(=O)Nc3cc4oc(N5CCOCC5)nc4nc3N3CC[C@@H](O)C3)co2)ccn1`: the GI50 was 46900 nM and the TGI was > 100 µM.

Turning to `COc1cc(/C=N\NC(=O)CN2CCN(c3cc4c(cc3F)c(=O)c(C(=O)N/N=C/c3cc(OC)c(OC)c(OC)c3)cn4C3CC3)CC2)cc(OC)c1OC`, the GI50 was 495 nM and the TGI was > 20 µM.

For `C=CC(=O)Nc1cc(Nc2ncc(C(=O)OC(C)C)c(-c3cn(C)c4ccccc34)n2)c(OC)cc1N(C)CCN(C)C`, the GI50 is 1190 nM and the TGI was 17.6 µM.

As for `CN(C)c1ccc(/C=C\C2=[N+](C)c3ccccc3C2(C)C)cc1`, the GI50 was 473 nM and the TGI is 27 µM.

Another assay has as its system U251 CNS. The assay can be described thus: inhibition of tumour cell growth, NCI panel, 48 h.
For `C=C(C)C(OC)C(O)CC1(C)CC(O)CC(C)(C2CCC3OC(C4(C)CCC(Br)C(C)(C)O4)CCC3(C)O2)O1` (stereo not drawn), the GI50 is 25.5 µM and the TGI was > 61.9 µM.

With `NC(N)=NS(=O)(=O)c1ccc(Nc2c3ccccc3nc3c(C(=O)NCCO)cccc23)cc1`, the GI50 was 26 µM.

On to `COc1cccc(-c2cc(-c3cccc(NS(C)(=O)=O)c3)nc(N)c2C#N)c1O`, for which the GI50 is 0.127 µM and the TGI is > 100 µM.

For `COc1ccc2c(c1)sc1nc(-c3ccccc3)c(-c3cccc4ccccc34)n12`, the GI50 is 0.447 µM and the TGI was > 100 µM.

For `OCCN(CCO)c1ncnc2c1ncn2Cc1ccc(CCl)cc1`, the GI50 is 15.7 µM and the TGI amounted to 29.8 µM.

For `O=C(Nc1ccccc1)c1c(O)[nH]c(=S)[nH]c1=O`, the GI50 is 66.5 µM; the TGI was 109 µM and > 250 µM.

Turning to `Cc1ccc(NC(=O)Nc2ccc(-c3cccnc3)cc2N2CCC(CO)CC2)cc1`, the GI50 is 2.02 µM and the TGI amounted to 6.81 µM.

`Cc1cc(-c2nc(C(=O)Nc3cc4oc(N5CCOCC5)nc4nc3N3CC[C@@H](O)C3)co2)ccn1`: the GI50 is 74.3 µM and the TGI is > 100 µM.

With `COc1cc(/C=N\NC(=O)CN2CCN(c3cc4c(cc3F)c(=O)c(C(=O)N/N=C/c3cc(OC)c(OC)c(OC)c3)cn4C3CC3)CC2)cc(OC)c1OC`, the GI50 is 0.328 µM and the TGI was > 100 µM.

For the molecule `C=CC(=O)Nc1cc(Nc2ncc(C(=O)OC(C)C)c(-c3cn(C)c4ccccc34)n2)c(OC)cc1N(C)CCN(C)C`, the GI50 was 3.98 µM and the TGI stood at 12.2 µM.

Turning to `CN(C)c1ccc(/C=C\C2=[N+](C)c3ccccc3C2(C)C)cc1`, the GI50 was 0.233 µM and the TGI was 17.4 µM.

A further assay deals with COLO 205 colon. Description: inhibition of tumour cell growth, NCI panel, 48 h.
Take `C=C(C)C(OC)C(O)CC1(C)CC(O)CC(C)(C2CCC3OC(C4(C)CCC(Br)C(C)(C)O4)CCC3(C)O2)O1` (stereo not drawn): the GI50 was 21.7 µM and the TGI amounted to 45.5 µM.

On to `NC(N)=NS(=O)(=O)c1ccc(Nc2c3ccccc3nc3c(C(=O)NCCO)cccc23)cc1`, for which the GI50 was 33.6 µM.

Consider `COc1cccc(-c2cc(-c3cccc(NS(C)(=O)=O)c3)nc(N)c2C#N)c1O`, for which the GI50 was 0.128 µM and the TGI worked out at 1.91 µM.

Turning to `COc1ccc2c(c1)sc1nc(-c3ccccc3)c(-c3cccc4ccccc34)n12`, the GI50 is 0.292 µM and the TGI came to 0.855 µM.

Regarding `OCCN(CCO)c1ncnc2c1ncn2Cc1ccc(CCl)cc1`, the GI50 was 18.2 µM and the TGI stood at 46.8 µM.

Turning to `O=C(Nc1ccccc1)c1c(O)[nH]c(=S)[nH]c1=O`, the GI50 is 39.3 µM; the TGI was 64.1 µM and 105 µM.

For the molecule `Cc1ccc(NC(=O)Nc2ccc(-c3cccnc3)cc2N2CCC(CO)CC2)cc1`, the GI50 is 2.85 µM and the TGI is 11.1 µM.

Turning to `Cc1cc(-c2nc(C(=O)Nc3cc4oc(N5CCOCC5)nc4nc3N3CC[C@@H](O)C3)co2)ccn1`, the GI50 is 37.2 µM and the TGI is > 100 µM.

In the case of `COc1cc(/C=N\NC(=O)CN2CCN(c3cc4c(cc3F)c(=O)c(C(=O)N/N=C/c3cc(OC)c(OC)c(OC)c3)cn4C3CC3)CC2)cc(OC)c1OC`, the GI50 was 0.45 µM and the TGI is > 23.2 µM.

Turning to `C=CC(=O)Nc1cc(Nc2ncc(C(=O)OC(C)C)c(-c3cn(C)c4ccccc34)n2)c(OC)cc1N(C)CCN(C)C`, the GI50 is 3.2 µM and the TGI is > 22.2 µM.

`CN(C)c1ccc(/C=C\C2=[N+](C)c3ccccc3C2(C)C)cc1`: the GI50 was 0.354 µM and the TGI was 1.65 µM.
